Where two headings read alike, the source gives them in different places.
Tests used:
[1] = target: T1, ovine COX-1 (Ovis aries, UniProt P05979); assay: COX functional assay; assay type: biochemical; conditions: for Inhibition of COX-1 (%) Mean ± std. dev. (N=3): compound 10 μM; for inhibition at 10 µM: read-out: Inhibition of COX-1 (%) Mean ± std. dev. (N=3)
T1 sequence (P05979 25-600): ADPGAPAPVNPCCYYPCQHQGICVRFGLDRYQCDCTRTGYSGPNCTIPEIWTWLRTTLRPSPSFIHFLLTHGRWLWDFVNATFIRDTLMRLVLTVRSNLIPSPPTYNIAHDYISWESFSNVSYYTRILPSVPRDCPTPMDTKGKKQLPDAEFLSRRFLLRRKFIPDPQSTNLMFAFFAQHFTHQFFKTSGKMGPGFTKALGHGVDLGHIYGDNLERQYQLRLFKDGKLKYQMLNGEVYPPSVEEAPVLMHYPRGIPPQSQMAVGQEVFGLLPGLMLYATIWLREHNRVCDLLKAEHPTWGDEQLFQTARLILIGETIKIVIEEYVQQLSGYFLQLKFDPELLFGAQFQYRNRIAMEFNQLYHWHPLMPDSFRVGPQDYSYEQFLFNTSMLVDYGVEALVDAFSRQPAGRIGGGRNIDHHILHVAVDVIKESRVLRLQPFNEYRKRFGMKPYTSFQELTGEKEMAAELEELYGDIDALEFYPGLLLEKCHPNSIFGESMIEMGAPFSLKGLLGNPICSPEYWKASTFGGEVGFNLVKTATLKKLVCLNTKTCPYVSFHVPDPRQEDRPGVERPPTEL

[2] = target: T2, human COX-2 (Homo sapiens, UniProt P35354); assay: COX functional assay; assay type: biochemical; conditions: for Inhibition of COX-2 (%) Mean ± std. dev. (N=3): compound 10 μM; for inhibition at 10 µM: read-out: Inhibition of COX-2 (%) Mean ± std. dev. (N=3); for COX-2 selectivity (IC50 COX-1 / IC50 COX-2): ratio of IC50 values; for selectivity for COX-2 (COX-1 IC50 / COX-2 IC50): human COX-2 over COX-1
T2 sequence (P35354 18-604): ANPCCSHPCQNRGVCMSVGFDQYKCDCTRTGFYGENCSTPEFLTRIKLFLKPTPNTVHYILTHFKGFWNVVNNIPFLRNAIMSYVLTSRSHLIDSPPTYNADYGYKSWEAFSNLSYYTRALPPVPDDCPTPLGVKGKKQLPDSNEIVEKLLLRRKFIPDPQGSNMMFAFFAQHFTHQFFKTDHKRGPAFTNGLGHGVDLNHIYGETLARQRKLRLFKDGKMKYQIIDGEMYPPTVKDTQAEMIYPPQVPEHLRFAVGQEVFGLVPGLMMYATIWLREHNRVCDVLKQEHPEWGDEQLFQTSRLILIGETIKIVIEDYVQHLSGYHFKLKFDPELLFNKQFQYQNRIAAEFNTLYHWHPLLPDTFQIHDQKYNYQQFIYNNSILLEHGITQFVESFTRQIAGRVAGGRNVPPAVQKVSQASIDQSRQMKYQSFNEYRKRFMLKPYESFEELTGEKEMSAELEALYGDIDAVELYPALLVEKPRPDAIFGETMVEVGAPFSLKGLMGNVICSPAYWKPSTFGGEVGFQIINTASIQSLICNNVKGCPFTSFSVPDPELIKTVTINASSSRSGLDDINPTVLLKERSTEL

[3] = system: ovine COX-2; assay: Pulsed ultrafiltration LC-MS screening for COX-2 ligands; assay type: binding; conditions: for binding to COX-2 (result in words): pulsed ultrafiltration LC-MS; for peak enhancement compared to the control chromatograms: standards screened as mixtures, 0.7 μg/mL each, control denatured COX-2
[4] = system: COX-1; conditions: read-out: IC50 COX-1; assay using human platelets; cited from earlier work
[5] = system: COX-1; conditions: read-out: IC50 COX-1; cited from earlier work
[6] = system: COX-2; conditions: read-out: IC50 COX-2; cited from earlier work
[7] = read-out: IC50 COX-2, N=3, mean ± std. dev.
[8] = IC50 COX-2, N=3, mean ± std. dev.
[9] = IC50 COX-1, N=3, mean ± std. dev.
[10] = read-out: IC50 COX-1, N=3, mean ± std. dev.

COc1ccc(-c2cc(=O)c3c(O)cc(O)cc3o2)cc1 [Linarigenin]
inhibition of COX-1 in the functional assay (result in words) [1]: did not inhibit
inhibition of COX-2 in the functional assay (result in words) [2]: did not inhibit

CC(=O)O[C@@H]1CC[C@@]2(C)[C@@H](CC[C@]3(C)[C@@H]2CC=C2[C@@H]4CC(C)(C)CC[C@]4(C)CC[C@]23C)[C@@]1(C)C(=O)O [Acetyl-α-boswellic acid]
Inhibition of COX-1 (%) Mean ± std. dev. (N=3) [1]: 74 ± 3%
Inhibition of COX-2 (%) Mean ± std. dev. (N=3) [2]: 19 ± 5%
IC50 [2, 7]: > 100 µM
IC50 ([2]; read-out: IC50 COX-2, N=3, mean ± std. dev., listed as acetyl-α-boswellic acid): ≥ 73 µM

C[C@H]1[C@H](C)CC[C@]2(C)CC[C@]3(C)C(=CC[C@@H]4[C@@]5(C)CC[C@@H](O)[C@](C)(C(=O)O)[C@@H]5CC[C@]43C)[C@H]12 [β-Boswellic acid]
inhibition at 10 µM [1]: 42 ± 15%
IC50 [2, 8]: > 100 µM
inhibition at 10 µM [2]: 17 ± 15%

C=C(C)[C@@H]1CC[C@]2(C(=O)O)CC[C@]3(C)[C@H](CC[C@@H]4[C@@]5(C)CC[C@H](O)C(C)(C)[C@@H]5CC[C@]43C)[C@@H]12 [Betulinic acid]
IC50 [1, 9]: 20 ± 3 µM
inhibition at 10 µM [1]: 32 ± 5%
inhibition of COX-2 in the functional assay (result in words) [2]: almost no inhibition of COX-2
IC50 [2, 8]: > 100 µM
COX-2 selectivity (IC50 COX-1 / IC50 COX-2) [2]: COX-1 specific
inhibition at 10 µM [2]: 33 ± 5%

C=C(C)[C@@H]1CC[C@]2(C)[C@H](CC=C3[C@@H]4[C@@H](C)[C@H](C)CC[C@]4(C)CC[C@]32C)[C@@]1(C)CCC(=O)O [Roburic acid]
Inhibition of COX-1 (%) Mean ± std. dev. (N=3) [1]: 33 ± 8%
IC50 [1, 10]: 5 ± 2 µM
Inhibition of COX-2 (%) Mean ± std. dev. (N=3) [2]: 45 ± 5%
IC50 [2, 7]: 9 ± 3 µM

CC(=O)O[C@@H]1CC[C@@]2(C)[C@@H](CC[C@]3(C)[C@@H]2CC=C2[C@@H]4[C@@H](C)[C@H](C)CC[C@]4(C)CC[C@]23C)[C@@]1(C)C(=O)O [Acetyl-β-boswellic acid]
Inhibition of COX-1 (%) Mean ± std. dev. (N=3) [1]: 31 ± 10%
Inhibition of COX-2 (%) Mean ± std. dev. (N=3) [2]: 25 ± 6%
IC50 [2, 7]: 73 ± 20 µM
IC50 ([2]; read-out: IC50 COX-2, N=3, mean ± std. dev., listed as acetyl-β-boswellic acid): ≥ 73 µM

C[C@H]1COC2=C1C(=O)C(=O)c1c2ccc2c1CCCC2(C)C [Cryptotanshinone]
IC50 [1, 9]: > 100 µM
inhibition at 10 µM [1]: 0%
binding to COX-2 (result in words) [3]: determined to be COX-2 ligands
IC50 [2, 8]: 22 ± 10 µM
selectivity for COX-2 (COX-1 IC50 / COX-2 IC50) [2]: ≥ 5 fold
COX-2 selectivity (IC50 COX-1 / IC50 COX-2) [2]: COX-2 specific
inhibition at 10 µM [2]: 31 ± 20%

O=C(/C=C/c1ccc(O)cc1)c1ccc(O)cc1O [Isoliquiritigenin]
peak enhancement compared to the control chromatograms [3]: ≥ 40%
inhibition at 10 µM [2]: 23 ± 3%

CC(=O)O[C@@H]1CC[C@@]2(C)[C@@H](CC[C@]3(C)[C@@H]2C(=O)C=C2[C@@H]4[C@@H](C)[C@H](C)CC[C@]4(C)CC[C@]23C)[C@@]1(C)C(=O)O [Acetyl-11-keto-β-boswellic acid]
Inhibition of COX-1 (%) Mean ± std. dev. (N=3) [1]: 39 ± 5%
IC50 [4]: 6 µM
Inhibition of COX-2 (%) Mean ± std. dev. (N=3) [2]: 23 ± 15%
IC50 [2, 7]: 85 ± 20 µM
IC50 ([2]; read-out: IC50 COX-2, N=3, mean ± std. dev., listed as acetyl-11-keto-β-boswellic acid): ≥ 73 µM

CC(C)=CCOc1c2ccoc2cc2oc(=O)ccc12 [Isoimperatorin]
inhibition of COX-1 in the functional assay (result in words) [1]: did not inhibit
inhibition of COX-2 in the functional assay (result in words) [2]: did not inhibit

Oc1ccc(/C=C/c2cc(O)cc(O)c2)cc1 [Resveratrol, reference compound]
IC50 [1, 9]: 0.86 ± 0.1 µM
inhibition at 10 µM [1]: 86 ± 7%
IC50 [5]: 830 ± 440 nM
IC50 [6]: 990 ± 400 nM

COc1cc(/C=C/C(=O)OCCc2ccccc2)ccc1O [Phenethyl trans-ferulate]
Inhibition of COX-1 (%) Mean ± std. dev. (N=3) [1]: 44 ± 3%
IC50 [1, 10]: 18 ± 5 µM
peak enhancement compared to the control chromatograms [3]: ≥ 40%
Inhibition of COX-2 (%) Mean ± std. dev. (N=3) [2]: 25 ± 10%
COX-2 selectivity (IC50 COX-1 / IC50 COX-2) [2]: 0.58
COX-2 selectivity (IC50 COX-1 / IC50 COX-2) ([2]; listed as phenethyl-trans-ferulate): inhibited COX-1 and COX-2 equally
IC50 [2, 7]: 31 ± 15 µM

CC(C)=CC(O)C/C(C)=C/COc1c2ccoc2cc2oc(=O)ccc12 (centres unmarked) [Notopterol]
inhibition of COX-1 in the functional assay (result in words) [1]: did not inhibit
inhibition of COX-2 in the functional assay (result in words) [2]: did not inhibit

CC(C)=CCC/C(C)=C/Cc1cc2ccc(=O)oc2cc1O [Ostruthin]
inhibition of COX-1 in the functional assay (result in words) [1]: did not inhibit
inhibition of COX-2 in the functional assay (result in words) [2]: did not inhibit

CCC/C=C1\OC(=O)C2=C1CC[C@H]1[C@H]3C=C4C(=O)O/C(=C\CCC)[C@@]4(CC3)[C@@H]21 [Senkyunolide O]
Inhibition of COX-1 (%) Mean ± std. dev. (N=3) [1]: 0 ± 5%
IC50 [1, 10]: 25 ± 10 µM
binding to COX-2 (result in words) [3]: determined to be COX-2 ligands
Inhibition of COX-2 (%) Mean ± std. dev. (N=3) [2]: 52 ± 20%
selectivity for COX-2 (COX-1 IC50 / COX-2 IC50) [2]: ≥ 5 fold
COX-2 selectivity (IC50 COX-1 / IC50 COX-2) [2]: 5.00
IC50 [2, 7]: 5 ± 5 µM

O=C1C[C@@H](c2ccc(O)cc2)Oc2cc(O)ccc21 [Liquiritigenin]
binding to COX-2 (result in words) [3]: did not show sufficient binding to COX-2

CC1(C)[C@@H](O)CC[C@]2(C)[C@H]3C(=O)C=C4[C@@H]5C[C@@](C)(C(=O)O)CC[C@]5(C)CC[C@@]4(C)[C@]3(C)CC[C@@H]12 [Glycyrrhetic acid]
inhibition of COX-1 in the functional assay (result in words) [1]: did not inhibit
inhibition of COX-2 in the functional assay (result in words) [2]: did not inhibit

CC1(C)CC[C@]2(C)CC[C@]3(C)C(=CC[C@@H]4[C@@]5(C)CC[C@@H](O)[C@](C)(C(=O)O)[C@@H]5CC[C@]43C)[C@@H]2C1 [α-Boswellic acid]
inhibition of COX-1 in the functional assay (result in words) [1]: did not inhibit
inhibition of COX-2 in the functional assay (result in words) [2]: did not inhibit

CC[C@H](CC[C@@H](C)[C@H]1CC[C@H]2[C@@H]3CC=C4C[C@@H](O)CC[C@]4(C)[C@H]3CC[C@]12C)C(C)C [β-Sitosterol]
inhibition of COX-1 in the functional assay (result in words) [1]: did not inhibit
inhibition of COX-2 in the functional assay (result in words) [2]: did not inhibit
